Data: patent publication US7208572B2, “Leptin-related peptides” (Albany Medical College, priority 1998, dated 2007)
Marks after values point to notes of the source that are not given here. Square brackets hold non-standard residues; d marks the D form. Ends that are not written are not given here.

Legend:
Assay type in all cases: in vivo, mouse
[1] = Epitope mapping: body weight and food intake in female C57BL/6J ob/ob mice, 7 daily ip injections; details: 7 days; for Cumulative food intake / Percent heavier (+) or lighter (−) than initial weight / Weight gain (+) or loss (−): 1 mg/day ip
Method: Animal procedures. Feeding and weighing schedules, as well as peptide administration protocols, are as described in EXAMPLE 8, supra.
Statistical analysis. Changes in body weight and differences in food intake between peptide-treated and vehicle-injected control mice were analyzed by analysis of variance (ANOVA) and considered significant when P<0.05.
Female ob/ob mice (n=6 per group) were given a single ip injection of 0.2 ml of vehicle (PBS, pH 7.2) or leptin-related synthetic peptide amide in 0.2 ml PBS for 7 consecutive days. Daily changes in body weight compared to pretreatment weights in both vehicle-injected control and peptide-treated mice are shown in FIG. 4. […] There was no evidence of weight loss in response to peptide treatment.

[2] = 12-day ip study of body weight gain and food intake in female C57BL/6J ob/ob mice; details: 1 mg/day ip, 12 days
Method: The graphs show changes in body weight (expressed as percent of initial weight) and food intake (expressed as mg/gm body weight/mouse) for mice given vehicle or synthetic leptin-related peptide OB3 (1 mg/day, ip, 12 days).
Mice were injected with leptin-related synthetic peptide (1 mg/g body weight, ip) or vehicle daily for 12 consecutive days. Each bar represents mean±SEM food consumption per mouse (n=6 mice per group) after 3, 6, 9 and 12 days of treatment.
Each value represents mean±SEM change in body weight for a group of 6 mice.
Mice were injected with leptin-related synthetic peptide (1 mg/g body weight, ip) or vehicle for 12 consecutive days. Each bar and vertical line represents mean±food consumption per mouse (n=6 mice per group) after 3, 6, 9 and 12 days of treatment.

[3] = Truncated and D-amino acid-substituted analogs: body weight, food and water intake in female C57BL/6J ob/ob mice, 7 days; details: for Cumulative food intake g/mouse3 g/mouse3 / Decrease(%) of cumulative food intake / Cumulative water intake / Cumulative food intake / Heavier (+) or lighter (−) than initial weight / Weight gain (+) or loss (−): 1 mg/day ip; for Decrease(%) of cumulative food intake / Increase (+) or decrease (−) of cumulative water intake / Increase (+) or decrease (−) of cumulative food intake: vs vehicle; for Cumulative food intake / Heavier (+) or lighter (−) than initial weight / Weight gain (+) or loss (−) / Increase (+) or decrease (−) of cumulative food intake: D-analog series; for Food intake relative to OB3: truncated analogs
Method: A. Housing: 6–8-week old homozygous female obese (ob/ob) and wild type (+1+) mice (C57BL/6J, Jackson Laboratory, Bar Harbor, Maine) were maintained in a temperature-controlled room (24° C.) in the Albany Medical College Animal Resources Facility under alternating 12-h light and dark periods (lights on 0700–1900 h). The animals were housed three per cage, and allowed food and water ad libitum for six days following their arrival.
Food and water remaining after 24 h was measured to the nearest 0.1 g and 0.1 ml, respectively, and the average amount consumed per mouse was calculated (mean±SEM, n=6). The mice were weighed once daily between 0900 and 1100 h on an Acculab V-333 electronic balance (Cole-Parmer, Vernon Hills, Ill.)
C. […] Control mice received 0.2 ml PBS (ip) only.
Female C7BL/6J ob/ob mice were given a single ip injection of vehicle (PBS, pH 7.2), LEP-(116–130) or truncated peptide (1 mg/200 ul PBS) for seven consecutive days. Daily changes in body weight compared to pretreatment weights of vehicle-injected control and peptide-treated mice were analyzed.

[4] = Blood glucose in female C57BL/6J ob/ob mice (Example 11); details: 1 mg/day ip
Method: D. Measurement of blood glucose: Blood was drawn from the tail vein of each mouse 2 h before the onset of the dark period at the beginning of the study, and after 2, 4, and 6 days of peptide treatment. The blood was applied to a test strip, and glucose levels were measured with a Glucometer Elite (Bayer, Elkhart, Ind.) glucose monitor.

Substance	Cumulative food intake [1]	Percent heavier (+) or lighter (−) than initial weight [1]	Weight gain (+) or loss (−) [1]	Cumulative water intake ([3]; 7 days)	Cumulative food intake ([3]; 7 days)	Heavier (+) or lighter (−) than initial weight ([3]; 7 days)	Weight gain (+) or loss (−) ([3]; 7 days)	Food intake of D-analogs ([3]; 7 days)	Increase (+) or decrease (−) of cumulative water intake [3]	Increase (+) or decrease (−) of cumulative food intake [3]	Serum glucose level ([4]; Day 2)	Serum glucose level ([4]; Day 4)	Serum glucose level ([4]; Day 6)	further results
S L S K M D Q T L A V Y Q Q V (SLSKMDQTLAVYQQV) [LEP(71–85)]	35.5 ± 1.1^b gm/mouse	+20.0%	+5.0 g	–	–	–	–	–	–	–	–	–	–	Food intake vs vehicle [1]: significantly (P=0.01) less than vehicle-injected control mice
V S A K Q R V T G L D F I P G (VSAKQRVTGLDFIPG; not fully specified) [LEP(51–65)]	40.7 ± 0.6 gm/mouse	+25.0%	+6.4 g	–	–	–	–	–	–	–	–	–	–	Body weight gain and food intake vs vehicle [2]: not significantly (i.e., P>0.05) different
Ser-Cys-Ser-Leu-Pro (SCSLP; printed: Ser-Cys-Ser-Leu-Pro) [LEP-(116–120)]	–	–	–	–	–	–	–	–	–	–	–	–	–	Cumulative food intake g/mouse3 g/mouse3 ([3]; 7 days): 42.4 ± 1.2 g/mouse; Decrease(%) of cumulative food intake ([3]; 7 days): 6.2%; Food intake less than vehicle-injected control mice ([3]; 7 days): 6.2%; Body weight gain and food intake vs vehicle [2]: did not approximate the activity observed with LEP(116–130)
V Y Q Q V L T S L P S Q N V L (VYQQVLTSLPSQNVL) [LEP(81–95)]	39.5 ± 1.1 gm/mouse	+26.0%	+6.2 g	–	–	–	–	–	–	–	–	–	–	–
SCSL[dP]QT [[D-Pro-5]-OB3]	–	–	–	32.2 ± 0.8^b ml/mouse	36.0 ± 12^b g/mouse	+2.4%	+1.2 ± 0.13^b g	equivalent to that of mice receiving OB3	−49.8%	−28.6%	272.0 ± 22.2^b mg/dl	213.0 ± 28.4^a mg/dl	202.8 ± 31.4^a mg/dl	Water consumption relative to OB3 ([3]; 7 days): significantly less than that seen in mice receiving OB3
T K T L I K T I V T R I N D I (TKTLIKTIVTRINDI) [LEP(31–45)]	39.5 ± 0.6 gm/mouse	+26.6%	+6.6 g	–	–	–	–	–	–	–	–	–	–	Body weight gain and food intake vs vehicle [2]: not significantly (i.e., P>0.05) different
[D-Ser]-Cys-Ser-Leu-Pro-Gln-Thr ([dS]CSLPQT) [[D-Ser-1]-OB3]	–	–	–	58.0 ± 1.8 ml/mouse	44.4 ± 1.4 g/mouse	+4.6%	+3.3 ± 0.18 g	reduced food intake when compared to vehicle-injected control mice, but not to the level seen in mice receiving OB3	−9.7%	−11.9%	356.0 ± 21.2 mg/dL	360.1 ± 25.1 mg/dL	287.0 ± 24.4 mg/dL	–
[D-Ser][D-Cys][D-Ser][D-Leu][D-Pro][D-Gln][D-Thr] [[D]-OB3]	–	–	–	67.5 ± 2.2 ml/mouse	52.7 ± 1.0 g/mouse	+10.0%	+4.0 ± 0.36 g	slight increase in food consumption	+5.1%	+4.6%	325.7 ± 31.5 mg/dL	405.5 ± 35.8 mg/dL	401.8 ± 25.0 mg/dL	–
SCSLPQTS [LEP-(116–123)]	–	–	–	–	–	–	–	–	–	–	–	–	–	Cumulative food intake g/mouse3 g/mouse3 ([3]; 7 days): 34.3 ± 10 g/mouse; Decrease(%) of cumulative food intake ([3]; 7 days): 23.3%; Food intake relative to OB3 ([3]; 7 days): equivalent to that of mice treated with OB3
A V P I Q K V Q D D T K T L I (AVPIQKVQDDTKTLI) [LEP(21–35)]	39.1 ± 1.0 gm/mouse	+24.0%	+6.2 g	–	–	–	–	–	–	–	–	–	–	Body weight gain and food intake vs vehicle [2]: not significantly (i.e., P>0.05) different
R I N D I S H T Q S V S A K Q (RINDISHTQSVSAKQ) [LEP(41–55)]	39.4 ± 1.5 gm/mouse	+27.6%	+5.9 g	–	–	–	–	–	–	–	–	–	–	Body weight gain and food intake vs vehicle [2]: not significantly (i.e., P>0.05) different
Ser-Cys-Ser-Leu-Pro-[D-Gln]-Thr (SCSLP[dQ]T) [[D-Gln-6]-OB3]	–	–	–	57.1 ± 1.0 ml/mouse	43.5 ± 0.9 g/mouse	+4.6%	+2.1 ± 0.14 g	reduced food intake when compared to vehicle-injected control mice, but not to the level seen in mice receiving OB3	−11.1%	−13.7%	394.0 ± 45.4 mg/dL	354.5 ± 17.3 mg/dL	358.0 ± 28.1 mg/dL	–
S[dC]SLPQT [[D-Cys-2]-OB3]	–	–	–	62.7 ± 1.7 ml/mouse	47.6 ± 0.8 g/mouse	+12.8%	+4.8 ± 0.11 g	reduced food intake when compared to vehicle-injected control mice, but not to the level seen in mice receiving OB3	−2.3%	−5.6%	298.0 ± 27.9 mg/dL	403.0 ± 41.1 mg/dL	346.2 ± 31.7 mg/dL	–
D F I P G L H P I L S L S K M (DFIPGLHPILSLSKM) [LEP(61–75)]	44.6 ± 2.3 gm/mouse	+24.0%	+5.9 g	–	–	–	–	–	–	–	–	–	–	–
SCSLPQTSG [LEP-(116–124)]	–	–	–	–	–	–	–	–	–	–	–	–	–	Cumulative food intake g/mouse3 g/mouse3 ([3]; 7 days): 34.6 ± 0.9 g/mouse; Decrease(%) of cumulative food intake ([3]; 7 days): 22.6%; Food intake relative to OB3 ([3]; 7 days): equivalent to that of mice treated with OB3
Ser-Cys-[D-Ser]-Leu-Pro-Gln-Thr (SC[dS]LPQT) [[D-Ser-3]-OB3]	–	–	–	53.2 ± 1.1 ml/mouse	45.9 ± 0.6 g/mouse	+13.2%	+4.7 ± 0.67 g	reduced food intake when compared to vehicle-injected control mice, but not to the level seen in mice receiving OB3	−17.1%	−8.9%	385.0 ± 10.0 mg/dL	337.0 ± 43.6 mg/dL	348.2 ± 14.0 mg/dL	–
SCSLPQ [LEP-(116–121)]	–	–	–	–	–	–	–	–	–	–	–	–	–	Cumulative food intake g/mouse3 g/mouse3 ([3]; 7 days): 41.6 ± 1.4 g/mouse; Decrease(%) of cumulative food intake ([3]; 7 days): 6.8%; Food intake less than vehicle-injected control mice ([3]; 7 days): 6.8%
S Q N V L Q I A N D L E N L R (SQNVLQIANDLENLR; not fully specified (N-terminus)) [LEP(91–105)]	36.1 ± 0.7^b gm/mouse	+18.6%	+5.2 g	–	–	–	–	–	–	–	–	–	–	Food intake vs vehicle [1]: significantly (P=0.01) less than vehicle-injected control mice
Ser-Cys-Ser-Leu-Pro-Gln-[D-Thr] (SCSLPQ[dT]; not fully specified; printed as Ser-Cys-Ser-Leu-Pro-Gln-[D-Thr]) [[D-Thr-7]-OB3]	–	–	–	68.3 ± 2.7 ml/mouse	56.1 ± 0.6 g/mouse	+10.6%	+4.6 ± 0.34 g	slight increase in food consumption	+6.4%	+11.3%	384.2 ± 18.1 mg/dL	405.5 ± 16.0 mg/dL	375.7 ± 17.8 mg/dL	–
